Laboratory results: patent US20240108658A1, “SYNERGISTIC STEM CELL-BASED MEDICATION FOR TREATING MYOCARDIAL INFARCTION AND RELATED APPLICATION” (SOOCHOW UNIVERSITY, priority 2021, published 2024)

Experiments:
[1] = tested on: mouse myocardial infarction modelling (LAD ligation); test: Ventricular remodeling: HW/BW and Masson staining, myocardial infarction area/heart area; assay type: in vivo, C57BL/6J mice; conditions: MSCs + 2-DG 500 mg/kg/day intraperitoneal; 28 days after surgery; FIG. 2
From the text: The sham-operated group was only passed through the lower part of the LAD without ligation, and the rest were the same as the model group. After ligation, it turned white from the ligation site to the cardiac apex when observed with the naked eyes. The left ventricular tissue was taken for cardiac tissue staining after 1 week and obvious fibrosis was observed, indicating the successful establishment of the myocardial infarction modelling. […] Masson staining: The mice were euthanized 28 days after surgery, and left ventricular tissue was taken for cardiac tissue staining to observe the therapeutic effect. It was carried out according to the routine Masson staining steps, and the observation and photo-taking were carried out under a regular optical microscope. The image analysis software Image J was used to analyze the area of each part and calculate the myocardial infarction area/heart area.

[2] = tested on: mouse myocardial infarction modelling (LAD ligation); test: Cardiac ultrasound testing of cardiac function after myocardial infarction (EF, FS, LVEDD, LVESD); assay type: in vivo, C57BL/6J mice
From the text: The sham-operated group was only passed through the lower part of the LAD without ligation, and the rest were the same as the model group. After ligation, it turned white from the ligation site to the cardiac apex when observed with the naked eyes. The left ventricular tissue was taken for cardiac tissue staining after 1 week and obvious fibrosis was observed, indicating the successful establishment of the myocardial infarction modelling. […] After anesthesia of mice (same method as before) and depilation, the mice lied on the left side, and the probe of the cardiac ultrasound diagnostic instrument was placed on the anterior wall of the heart, a two-dimensional short-axis view of the left ventricle at the papillary muscle level was taken and the M-mode ultrasonic scanning was recorded. And left ventricular ejection fraction (EF), shortening fraction (FS), left ventricular end diastolic diameter (LVEDD), and left ventricular end systolic diameter (LVESD) were measured for three consecutive cardiac cycles.

transplanted MSCs = test: Survival of transplanted CM-Dil-stained mesenchymal stem cells (immunofluorescence, flow cytometry); conditions: MSCs + 2-DG 500 mg/kg/day intraperitoneal; 3rd day after surgery; FIG. 3

`O=CC[C@@H](O)[C@H](O)[C@H](O)CO` [2-DG, 2-Deoxy-D-glucose] was tested, and the “ventricular remodeling of mice treated with MSCs after myocardial infarction” value [1] was “improvement of ventricular remodeling”, the “cardiac function of mice treated with MSCs after myocardial infarction” value ([2]; MSCs 5×105 intramyocardial + 2-DG 500 mg/kg/day intraperitoneal, FIG. 1) was “improvement of cardiac function” and the “function of MSCs in improving myocardial infarction (overall conclusion)” value ([2]; conclusion from Examples 1-3, MSCs + 2-DG) was “can effectively improve the function of MSCs in improving myocardial infarction”. The “survival of transplanted MSCs” value (transplanted MSCs) was “significantly increases the survival of transplanted MSCs”.
